# From patent US10781204B2, “TYK2 inhibitors and uses thereof” (Nimbus Lakshmi, Inc., priority 2015, dated 2020)
# Legend:
# JAK2 = JAK2 (Homo sapiens (Human), UniProt O60674); assay: JAK2 radioactive kinase assay; format: biochemical; conditions: ATP 10 μM
# Protocol: (§1) Peptide substrate, [KKSRGDYMTMQIG], (20 μM) is prepared in reaction buffer (20 mM Hepes pH 7.5, 10 mM MgCl2, 1 mM EGTA, 0.02% Brij35, 0.02 mg/mL BSA, 0.1 mM […], 2 mM DTT, 1% DMSO. TYK2 (Invitrogen) kinase is added, followed by compounds in DMSO. ^33PATP is added to initiate the reaction with ATP at 10 μM. Kinase reaction is incubated for 120 min at room temp and reactions are spotted onto P81 ion exchange paper (Whatman #3698-915), and then washed extensively in 0.75% phosphoric acid, prior to reading the radioactivity counts. For JAK2 (Invitrogen) kinase assay the peptide substrate poly[Glu:Tyr] (4:1), 0.2 mg/ml is used, in the reaction carried out the same as for TYK2.
# TYK2 = TYK2 (Homo sapiens (Human), UniProt P29597); assay: Tyk2 radioactive kinase assay; format: biochemical; conditions: ATP 10 μM
# Chain of TYK2 (P29597 whole entry): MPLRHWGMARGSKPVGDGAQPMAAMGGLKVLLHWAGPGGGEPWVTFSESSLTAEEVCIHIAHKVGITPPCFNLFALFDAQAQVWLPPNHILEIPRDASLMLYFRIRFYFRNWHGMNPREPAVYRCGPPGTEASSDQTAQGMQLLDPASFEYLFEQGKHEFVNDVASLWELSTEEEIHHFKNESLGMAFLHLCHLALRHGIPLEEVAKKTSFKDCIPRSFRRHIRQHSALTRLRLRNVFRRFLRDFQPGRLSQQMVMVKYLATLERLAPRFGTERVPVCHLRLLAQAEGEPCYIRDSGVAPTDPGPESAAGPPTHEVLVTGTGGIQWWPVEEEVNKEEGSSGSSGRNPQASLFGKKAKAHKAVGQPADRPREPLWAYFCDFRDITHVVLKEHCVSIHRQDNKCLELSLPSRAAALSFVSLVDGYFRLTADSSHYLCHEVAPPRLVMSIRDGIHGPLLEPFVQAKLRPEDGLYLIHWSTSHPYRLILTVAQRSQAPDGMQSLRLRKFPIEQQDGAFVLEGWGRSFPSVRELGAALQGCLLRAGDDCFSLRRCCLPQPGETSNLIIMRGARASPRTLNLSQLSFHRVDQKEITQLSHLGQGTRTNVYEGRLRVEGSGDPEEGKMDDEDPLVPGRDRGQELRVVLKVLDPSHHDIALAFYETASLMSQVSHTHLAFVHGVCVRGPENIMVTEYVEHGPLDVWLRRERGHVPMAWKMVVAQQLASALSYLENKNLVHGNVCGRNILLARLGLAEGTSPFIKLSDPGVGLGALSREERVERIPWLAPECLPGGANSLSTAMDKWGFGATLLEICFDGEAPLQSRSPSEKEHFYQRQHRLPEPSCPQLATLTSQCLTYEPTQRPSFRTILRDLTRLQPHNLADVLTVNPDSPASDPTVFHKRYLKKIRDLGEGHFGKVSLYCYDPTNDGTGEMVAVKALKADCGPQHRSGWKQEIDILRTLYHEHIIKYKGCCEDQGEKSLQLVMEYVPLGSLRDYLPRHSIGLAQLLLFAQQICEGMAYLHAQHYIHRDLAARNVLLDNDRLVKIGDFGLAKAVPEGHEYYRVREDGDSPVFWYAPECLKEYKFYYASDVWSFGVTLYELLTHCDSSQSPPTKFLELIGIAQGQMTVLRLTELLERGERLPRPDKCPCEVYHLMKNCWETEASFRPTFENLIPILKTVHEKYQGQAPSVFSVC
# Protocol: as §1
# [1] = test system: JAK2-pSTAT5 (GM-CSF induced pSTAT5); assay: GM-CSF induced pSTAT5 in human PBMC; format: cell-based; conditions: 20 min, 5 ng/mL GM-CSF
# Protocol: (§2) Human PBMC are isolated from buffy coat and are stored frozen for assays as needed. Cells for assay are thawed and resuspended in complete media containing serum, then cells are diluted to 1.67 E6 cells/ml so that 120 ul per well is 200,000 cells. 15 ul of compound or DMSO is added to the well at the desired concentrations and incubated at 1 hr at 37 C. 15 ul of stimulus (final concentration of 1.7 ng/mL IL-12) is added for 30 minutes prior to pSTAT4 and total STAT4 analysis using cell lysates prepared and analyzed by MSD reagents as per manufacturer protocol. The final DMSO concentration of compound in the assay is 0.1%.
# Cells are prepared for analysis as in the above procedure and 15 ul of GM-CSF (final concentration 5 ng/mL) is added for 20 minutes prior to pSTAT5 and total STAT5 analysis using cell lysates prepared and analyzed by MSD reagents as per manufacturer protocol. The final DMSO concentration of compound in the assay is 0.1%.
# [2] = test system: Tyk2-pSTAT4 (IL-12 induced pSTAT4); assay: IL-12 induced pSTAT4 in human PBMC; format: cell-based; conditions: Homo sapiens, PBMC, 0.5 h, 1.7 ng/mL IL-12, 30 minutes
# Protocol: as §2
# Chain of JAK2 (O60674 whole entry): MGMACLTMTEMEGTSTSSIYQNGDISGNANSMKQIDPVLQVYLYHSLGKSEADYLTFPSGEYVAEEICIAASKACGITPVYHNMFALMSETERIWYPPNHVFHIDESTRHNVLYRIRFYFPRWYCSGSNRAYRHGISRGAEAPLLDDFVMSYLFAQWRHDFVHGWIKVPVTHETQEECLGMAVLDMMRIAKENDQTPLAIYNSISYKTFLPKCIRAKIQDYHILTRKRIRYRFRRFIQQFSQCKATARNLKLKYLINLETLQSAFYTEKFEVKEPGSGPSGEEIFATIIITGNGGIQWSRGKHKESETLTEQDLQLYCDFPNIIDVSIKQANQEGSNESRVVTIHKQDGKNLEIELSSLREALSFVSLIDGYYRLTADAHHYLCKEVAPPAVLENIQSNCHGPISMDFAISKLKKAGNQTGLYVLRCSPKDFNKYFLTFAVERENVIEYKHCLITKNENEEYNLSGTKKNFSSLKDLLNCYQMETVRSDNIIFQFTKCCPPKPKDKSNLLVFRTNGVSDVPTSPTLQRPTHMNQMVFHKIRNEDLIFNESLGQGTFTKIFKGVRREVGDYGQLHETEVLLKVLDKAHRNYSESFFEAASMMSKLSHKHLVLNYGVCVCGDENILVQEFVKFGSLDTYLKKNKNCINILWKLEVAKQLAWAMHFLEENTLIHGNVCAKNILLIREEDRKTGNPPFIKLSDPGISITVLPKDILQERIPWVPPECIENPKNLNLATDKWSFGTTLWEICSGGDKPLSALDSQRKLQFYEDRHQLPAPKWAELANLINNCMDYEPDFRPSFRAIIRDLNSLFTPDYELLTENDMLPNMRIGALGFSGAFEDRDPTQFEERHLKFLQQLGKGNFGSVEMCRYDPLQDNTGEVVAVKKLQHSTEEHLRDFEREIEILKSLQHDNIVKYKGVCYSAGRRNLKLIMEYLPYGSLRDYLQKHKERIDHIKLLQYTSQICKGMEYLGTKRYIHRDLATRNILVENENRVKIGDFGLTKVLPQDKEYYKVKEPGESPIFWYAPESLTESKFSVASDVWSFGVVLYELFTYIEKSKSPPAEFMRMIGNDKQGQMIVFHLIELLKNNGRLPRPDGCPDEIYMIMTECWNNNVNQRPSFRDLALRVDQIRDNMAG
Ki (JAK2),Ki (TYK2),"EC50 ([1]; Homo sapiens, PBMC)",EC50 [2],Compound,EC50 [1]
100 to 1000 nM,0.1 to 10 nM,> 2000 nM,,"CCNC(=O)c1ccn(-c2cc(-c3c(F)cccc3F)nc3c2C(=O)NC3)n1 [I-3, 1-(2-(2,6-difluorophenyl)-5-oxo-6,7-dihydro-5H-pyrrolo[3,4-b]pyridin-4-yl)-N-ethyl-1H-pyrazole-3-carboxamide]",
100 to 1000 nM,0.1 to 10 nM,> 2000 nM,,"O=C1NCc2nc(-c3c(F)cccc3F)cc(-n3ccc(N4CCC5(CCOCC5)CC4)n3)c21 [I-9, 4-(3-(3-oxa-9-azaspiro[5.5]undecan-9-yl)-1H-pyrazol-1-yl)-2-(2,6-difluorophenyl)-6,7-dihydro-5H-pyrrolo[3,4-b]pyridin-5-one]",
100 to 1000 nM,0.1 to 10 nM,> 2000 nM,,"N#Cc1cccc(F)c1-c1cc(-n2ccc(C3CCOCC3)n2)c2c(n1)CNC2=O [I-16, 3-fluoro-2-(5-oxo-4-(3-(tetrahydro-2H-pyran-4-yl)-1H-pyrazol-1-yl)-6,7-dihydro-5H-pyrrolo[3,4-b]pyridin-2-yl)benzonitrile]",
10 to 100 nM,0.1 to 10 nM,> 2000 nM,,"CC1(C)COC(c2ccn(-c3cc(-c4c(F)cccc4C#N)nc4c3C(=O)NC4)n2)=N1 [I-60, 2-(4-(3-(4,4-dimethyl-4,5-dihydrooxazol-2-yl)-1H-pyrazol-1-yl)-5-oxo-6,7-dihydro-5H-pyrrolo[3,4-b]pyridin-2-yl)-3-fluorobenzonitrile]",
10 to 100 nM,0.1 to 10 nM,> 2000 nM,,"N#Cc1cccc(F)c1-c1cc(-n2ccc(N3CCCC(N)C3)n2)c2c(n1)CNC2=O (stereo not drawn) [I-68, 2-(4-(3-(3-aminopiperidin-1-yl)-1H-pyrazol-1-yl)-5-oxo-6,7-dihydro-5H-pyrrolo[3,4-b]pyridin-2-yl)-3-fluorobenzonitrile]",
10 to 100 nM,0.1 to 10 nM,> 2000 nM,,"N#Cc1cccc(F)c1-c1cc(-n2ccc(N3CCC[C@H](N)C3)n2)c2c(n1)CNC2=O [I-74, (S)-2-(4-(3-(3-aminopiperidin-1-yl)-1H-pyrazol-1-yl)-5-oxo-6,7-dihydro-5H-pyrrolo[3,4-b]pyridin-2-yl)-3-fluorobenzonitrile]",
0.1 to 10 nM,0.1 to 10 nM,> 2000 nM,,"N#Cc1cccc(F)c1-c1cc(-n2cc3c(n2)NCCC3)c2c(n1)CNC2=O [I-75, 3-fluoro-2-(5-oxo-4-(4,5,6,7-tetrahydro-2H-pyrazolo[3,4-b]pyridin-2-yl)-6,7-dihydro-5H-pyrrolo[3,4-b]pyridin-2-yl)benzonitrile]",
10 to 100 nM,0.1 to 10 nM,> 2000 nM,,"N#Cc1cccc(F)c1-c1cc(-n2ccc(N3CCCC(O)(C(F)(F)F)C3)n2)c2c(n1)CNC2=O (stereo not drawn) [I-80, 3-fluoro-2-(4-(3-(3-hydroxy-3-(trifluoromethyl)piperidin-1-yl)-1H-pyrazol-1-yl)-5-oxo-6,7-dihydro-5H-pyrrolo[3,4-b]pyridin-2-yl)benzonitrile]",
≥ 1000 nM,10 to 100 nM,> 2000 nM,,"CC1CC(O)CC(C)N1c1ccn(-c2cc(-c3c(F)cccc3C#N)nc3c2C(=O)NC3)n1 (stereo not drawn) [I-85, 3-fluoro-2-(4-(3-(4-hydroxy-2,6-dimethylpiperidin-1-yl)-1H-pyrazol-1-yl)-5-oxo-6,7-dihydro-5H-pyrrolo[3,4-b]pyridin-2-yl)benzonitrile]",
100 to 1000 nM,0.1 to 10 nM,> 2000 nM,,"O=C1NCc2nc(-c3c(F)cccc3F)cc(-n3ccc(N4CCOCC4CO)n3)c21 (stereo not drawn) [I-90, 2-(2,6-difluorophenyl)-4-(3-(3-(hydroxymethyl)morpholino)-1H-pyrazol-1-yl)-6,7-dihydro-5H-pyrrolo[3,4-b]pyridin-5-one]",
10 to 100 nM,0.1 to 10 nM,> 2000 nM,,"CC1CCC(O)CN1c1ccn(-c2cc(-c3c(F)cccc3C#N)nc3c2C(=O)NC3)n1 (stereo not drawn) [I-96, 3-fluoro-2-(4-(3-(5-hydroxy-2-methylpiperidin-1-yl)-1H-pyrazol-1-yl)-5-oxo-6,7-dihydro-5H-pyrrolo[3,4-b]pyridin-2-yl)benzonitrile]",
10 to 100 nM,0.1 to 10 nM,> 2000 nM,,"N#Cc1cccc(F)c1-c1cc(-n2ccc(C3CCCO3)n2)c2c(n1)CNC2=O (stereo not drawn) [I-101, 3-fluoro-2-(5-oxo-4-(3-(tetrahydrofuran-2-yl)-1H-pyrazol-1-yl)-6,7-dihydro-5H-pyrrolo[3,4-b]pyridin-2-yl)benzonitrile]",
0.1 to 10 nM,0.1 to 10 nM,> 2000 nM,,"N#Cc1cccc(F)c1-c1cc(-n2ccc(N3C[C@@H](O)[C@@H](O)C3)n2)c2c(n1)CNC2=O [I-109, 2-(4-(3-((3S,4R)-3,4-dihydroxypyrrolidin-1-yl)-1H-pyrazol-1-yl)-5-oxo-6,7-dihydro-5H-pyrrolo[3,4-b]pyridin-2-yl)-3-fluorobenzonitrile]",
≥ 1000 nM,≥ 1000 nM,> 2000 nM,,"CN1CC2(CCN(c3ccn(-c4cc(-c5c(F)cccc5C#N)nc5c4C(=O)NC5)n3)CC2)C1 [I-110, 3-fluoro-2-(4-(3-(2-methyl-2,7-diazaspiro[3.5]nonan-7-yl)-1H-pyrazol-1-yl)-5-oxo-6,7-dihydro-5H-pyrrolo[3,4-b]pyridin-2-yl)benzonitrile]",
0.1 to 10 nM,0.1 to 10 nM,> 2000 nM,,"CC1(C#N)CCCN(c2ccn(-c3cc(-c4c(F)cccc4C#N)nc4c3C(=O)NC4)n2)C1 (stereo not drawn) [I-133, 1-(1-(2-(2-cyano-6-fluorophenyl)-5-oxo-6,7-dihydro-5H-pyrrolo[3,4-b]pyridin-4-yl)-1H-pyrazol-3-yl)-3-methylpiperidine-3-carbonitrile]",
10 to 100 nM,0.1 to 10 nM,> 2000 nM,,"C[C@@]1(O)CN(c2ccn(-c3cc(-c4c(F)cccc4C#N)nc4c3C(=O)NC4)n2)C[C@@](C)(O)C1 [I-145, 2-(4-(3-((3S,5S)-3,5-dihydroxy-3,5-dimethylpiperidin-1-yl)-1H-pyrazol-1-yl)-5-oxo-6,7-dihydro-5H-pyrrolo[3,4-b]pyridin-2-yl)-3-fluorobenzonitrile]",
0.1 to 10 nM,0.1 to 10 nM,> 2000 nM,,"N#Cc1cccc(F)c1-c1cc(-n2ccc(N3CCOC[C@H]3CO)n2)c2c(n1)CNC2=O [I-164, (R)-3-fluoro-2-(4-(3-(3-(hydroxymethyl)morpholino)-1H-pyrazol-1-yl)-5-oxo-6,7-dihydro-5H-pyrrolo[3,4-b]pyridin-2-yl)benzonitrile]",
0.1 to 10 nM,0.009 to 0.1 nM,> 2000 nM,,"N#Cc1cccc(F)c1-c1cc(-n2ccc(N3CC[C@@H](F)[C@@H](O)C3)n2)c2c(n1)CNC2=O [I-173, 3-fluoro-2-(4-(3-((3S,4R)-4-fluoro-3-hydroxypiperidin-1-yl)-1H-pyrazol-1-yl)-5-oxo-6,7-dihydro-5H-pyrrolo[3,4-b]pyridin-2-yl)benzonitrile]",
10 to 100 nM,0.1 to 10 nM,> 2000 nM,,"N#Cc1cccc(F)c1-c1cc(-n2cc3c(n2)CC(C(N)=O)CN3)c2c(n1)CNC2=O (stereo not drawn) [I-180, 2-(2-(2-cyano-6-fluorophenyl)-5-oxo-6,7-dihydro-5H-pyrrolo-[3,4-b]pyridin-4-yl)-4,5,6,7-tetrahydro-2H-pyrazolo[4,3-b]pyridine-6-carboxamide]",
0.1 to 10 nM,0.1 to 10 nM,> 2000 nM,,"N#Cc1cccc(F)c1-c1cc(-n2ccc(N3CCC4(C3)OCC(O)CO4)n2)c2c(n1)CNC2=O (stereo not drawn) [I-192, 3-fluoro-2-(4-(3-(8-hydroxy-6,10-dioxa-2-azaspiro[4.5]decan-2-yl)-1H-pyrazol-1-yl)-5-oxo-6,7-dihydro-5H-pyrrolo[3,4-b]pyridin-2-yl)benzonitrile]",
10 to 100 nM,0.009 to 0.1 nM,,100 to 2000 nM,"CO[C@H]1CCN(c2ccn(-c3cc(-c4c(F)cccc4C#N)nc4c3C(=O)NC4)n2)C[C@@]1(C)O [I-229, 3-fluoro-2-(4-(3-((3R,4S)-3-hydroxy-4-methoxy-3-methylpiperi-din-1-yl)-1H-pyrazol-1-yl)-5-oxo-6,7-dihydro-5H-pyrrolo[3,4-b]pyridin-2-yl)benzonitrile]",
0.1 to 10 nM,0.1 to 10 nM,> 2000 nM,,"N#Cc1cccc(F)c1-c1cc(-c2cc3n(n2)CC(O)CN3)c2c(n1)CNC2=O (stereo not drawn) [I-235, 3-fluoro-2-(4-(6-hydroxy-4,5,6,7-tetrahydropyrazolo[1,5-a]pyrimidin-2-yl)-5-oxo-6,7-dihydro-5H-pyrrolo[3,4-b]pyridin-2-yl)benzonitrile]",

Compound,Ki (JAK2),Ki (TYK2),"EC50 ([1]; Homo sapiens, PBMC)",EC50 [2],EC50 [1]
"CCNC(=O)Cc1ccn(-c2cc(-c3c(F)cccc3F)nc3c2C(=O)NC3)n1 [I-2, 2-(1-(2-(2,6-difluorophenyl)-5-oxo-6,7-dihydro-5H-pyrrolo[3,4-b]pyridin-4-yl)-1H-pyrazol-3-yl)-N-ethylacetamide]",≥ 1000 nM,10 to 100 nM,,,> 2000 nM
